A value given as a limit tells only on which side of the number the result lay.

By AUC is commonly meant the area under the concentration-time curve, a measure of exposure. The Cmax is the highest concentration seen after dosing. The Tmax is the time from dosing to the highest level. In general, half-life refers to the time needed for the level to fall by half in the phase considered. Broadly, the IC50 is the concentration that gives 50% inhibition.

T1 sequence (O35433 whole entry): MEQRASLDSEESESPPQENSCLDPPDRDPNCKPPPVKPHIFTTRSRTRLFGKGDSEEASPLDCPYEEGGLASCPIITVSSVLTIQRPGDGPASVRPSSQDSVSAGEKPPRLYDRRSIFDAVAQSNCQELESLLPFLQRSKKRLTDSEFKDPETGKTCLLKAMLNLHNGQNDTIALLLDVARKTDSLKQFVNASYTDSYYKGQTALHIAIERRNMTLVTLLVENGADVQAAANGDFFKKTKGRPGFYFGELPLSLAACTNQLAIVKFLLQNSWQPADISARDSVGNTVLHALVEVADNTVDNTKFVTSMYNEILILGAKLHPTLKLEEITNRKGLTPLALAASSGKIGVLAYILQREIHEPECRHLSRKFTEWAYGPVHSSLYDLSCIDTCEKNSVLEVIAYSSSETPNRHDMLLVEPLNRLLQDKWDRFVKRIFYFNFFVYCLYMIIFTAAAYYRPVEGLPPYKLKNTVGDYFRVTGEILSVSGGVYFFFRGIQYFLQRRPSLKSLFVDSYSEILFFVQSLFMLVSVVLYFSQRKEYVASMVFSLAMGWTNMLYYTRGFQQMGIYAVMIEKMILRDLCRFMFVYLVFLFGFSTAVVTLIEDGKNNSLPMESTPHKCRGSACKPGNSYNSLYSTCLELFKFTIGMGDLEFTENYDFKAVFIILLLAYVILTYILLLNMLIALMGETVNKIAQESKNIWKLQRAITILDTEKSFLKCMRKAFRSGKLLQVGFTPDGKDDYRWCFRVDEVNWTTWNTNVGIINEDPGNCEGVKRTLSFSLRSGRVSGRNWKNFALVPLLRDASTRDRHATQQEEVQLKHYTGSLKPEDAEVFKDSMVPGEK

System in the first data set: not listed separately
In words: PK study in rats, single oral administration. In kind it is in vivo. More on the design: AUC: concentration or dose not given beside the values. As to conditions: rat, plasma. As for the experimental part: Pharmacokinetics of compounds in rats were analyzed using the following experiment. Rats were fasted overnight prior to administration and until approximately 4 hours after administration. Rats were given a single oral administration of compound at same dose. Administration volume was 10 ml/kg. Blood samples were collected from the retro-orbital sinus at various times over the following 7 hrs. Immediately after each collection, plasmas were separated from blood cells by centrifugation and stored at −20° C. until the analysis was performed. The plasma samples were analyzed using a reverse phase high-performance chromatography (HPLC) method.
Take `C#Cc1cc(CNC(=O)/C=C/c2ccc(C(F)(F)F)nc2)cc(F)c1NS(C)(=O)=O` [Example 57, N-(3-Ethynyl-5-fluoro-4-methanesulfonylamino-benzyl)-3-(6-trifluoromethyl-pyridin-3-yl)-acrylamide]: the exposure (AUC) was determined as 56500 ng·h/mL, the highest concentration (Cmax) came to 2200 ng/mL, the time of peak concentration (Tmax) stood at 0.833 h and the half-life was 3.95 h.

The compound `C=Cc1cc(CNC(=O)/C=C/c2ccc(C(C)(C)C)cc2N2CCOCC2)cc(F)c1NS(C)(=O)=O` [Examples 22] displayed a Cmax of under 100 ng/mL.

As for `C=Cc1cc(CNC(=O)/C=C/c2ccc(C(C)(C)C)cc2NC(C)C)cc(F)c1NS(C)(=O)=O` [Examples 34], the Cmax was under 100 ng/mL.

A further data set addresses T1, vanilloid receptor (Rattus norvegicus, UniProt O35433).
T1 construct: DRG nerve cells from the primary culture of 2 days were equilibrated; endogenous in cells; host or cells: primary culture of dorsal root ganglion neurons from neonatal SD rats
As to the kind of experiment: 45Ca influx test in cultured neonatal rat DRG neurons, inhibition of capsaicin response. In kind it is cell-based. As to conditions: Table 3; unit inferred; read-out: IC50. Put shortly: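 Neonatal SD rat DRG neurons, cultured 2 days with NGF (200 ng/ml) and Ara-C, were washed in HEPES (10 mM, pH 7.4)-buffered Ca/Mg-free HBSS. Test compound was added with capsaicin (final 0.5 μM) and 45Ca (10 μCi/ml) for 10 min at room temperature; 45Ca uptake counted by scintillation after SDS elution.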
As for `C#Cc1cc(CNC(=O)/C=C/c2ccc(C(F)(F)F)nc2)cc(F)c1NS(C)(=O)=O` [Example 57, N-(3-Ethynyl-5-fluoro-4-methanesulfonylamino-benzyl)-3-(6-trifluoromethyl-pyridin-3-yl)-acrylamide], the IC50 is over 10000 nM.

The data set is the same for the next values; noted with them: neonatal rat DRG neurons, capsaicin 0.5 μM, 45Ca influx; read-out: Antagonist Calcium Uptake Test (IC50).
Turning to `C#Cc1cc(CNC(=O)/C=C/c2ccc(C(F)(F)F)nc2)cc(F)c1NS(C)(=O)=O` [Example 57, N-(3-Ethynyl-5-fluoro-4-methanesulfonylamino-benzyl)-3-(6-trifluoromethyl-pyridin-3-yl)-acrylamide], the 50% inhibitory concentration (IC50) was over 10000 nM.

Consider `CCCCc1nc(C(F)(F)F)ccc1C#CC(=O)NCc1cc(C)c(NS(C)(=O)=O)c(F)c1` [Example 273, 3-(2-Butyl-6-trifluoromethyl-pyridin-3-yl)-propynoic acid 3-fluoro-4-methanesulfonylamino-5-methyl-benzylamide], for which the half-maximal inhibitory concentration (IC50) amounted to 840 nM.

Take `CCCCc1nc(C(F)(F)F)ccc1C#CC(=O)N[C@H](C)c1ccc(NS(C)(=O)=O)c(F)c1` [Example 274, 3-(2-Butyl-6-trifluoromethyl-pyridin-3-yl)-propynoic acid [1-(3-fluoro-4-methane sulfonylamino-phenyl)-ethyl]-amide]: the concentration for half-maximal inhibition (IC50) is 1200 nM.

As for `C#Cc1cc(CNC(=O)/C=C(/CCC)c2ccc(C(F)(F)F)nc2CCC)cc(F)c1NS(C)(=O)=O` [Example 275], the IC50 was 310 nM.

As for `C#Cc1cc(CNC(=O)/C=C(\CCC)c2ccc(C(F)(F)F)nc2CCC)cc(F)c1NS(C)(=O)=O` [Example 276], the IC50 is 240 nM.

Turning to `CCC/C(=C/C(=O)N[C@H](C)c1cc(F)c(NS(C)(=O)=O)c(F)c1)c1ccc(C(F)(F)F)nc1CCC` [Example 277, (Z)-3-(2-Propyl-6-trifluoromethyl-pyridin-3-yl)-hex-2-enoic acid [1-(3,5-difluoro-4-methanesulfonylamino-phenyl)-ethyl]-amide], the concentration for half-maximal inhibition (IC50) worked out at 320 nM.

Regarding `CCC/C(=C\C(=O)N[C@H](C)c1cc(F)c(NS(C)(=O)=O)c(F)c1)c1ccc(C(F)(F)F)nc1CCC` [Example 278, (E)-3-(2-Propyl-6-trifluoromethyl-pyridin-3-yl)-hex-2-enoic acid [1-(3,5-difluoro-4-methanesulfonylamino-phenyl)-ethyl]-amide], the IC50 amounted to 160 nM.

Consider `O=C(/C=C/c1ccc(C(F)(F)F)nc1CCc1ccccc1)NCc1ccc(NS(=O)(=O)C(F)(F)F)cc1` [Example 279, 3-(2-Phenethyl-6-trifluoromethyl-pyridin-3-yl)-N-(4-trifluoromethanesulfonylamino-benzyl)-acrylamide], for which the half-inhibitory concentration (IC50) was 3900 nM.

As to `CC(C)(C)c1ccc(/C=C/C(=O)NCc2ccc(NS(C)(=O)=O)c(F)c2)cn1` [Examples 1], the half-maximal inhibitory concentration (IC50) was 1300 nM.

Turning to `CC(C)(C)c1ccc(/C=C/C(=O)NCc2ccc(NS(C)(=O)=O)c(Cl)c2)cn1` [Examples 2], the 50% inhibitory concentration (IC50) stood at 1300 nM.

In the case of `C=Cc1cc(CNC(=O)/C=C/c2ccc(C(C)(C)C)nc2)ccc1NS(C)(=O)=O` [Examples 4], the half-inhibitory concentration (IC50) stood at 220 nM.

For `COc1nc(C(C)(C)C)ccc1/C=C/C(=O)NCc1ccc(NS(C)(=O)=O)c(F)c1` [Examples 9], the IC50 amounted to 400 nM.

In the case of `CS(=O)(=O)Nc1ccc(CNC(=O)/C=C/c2ccc(Cl)nc2)cc1F` [Examples 16], the half-maximal inhibitory concentration (IC50) is over 10000 nM.

Regarding `CS(=O)(=O)Nc1c(F)cc(CNC(=O)/C=C/c2ccc(C(F)(F)F)nc2N2CCOCC2)cc1C(F)(F)F` [Examples 22], the IC50 was found to be 3300 nM.

With `C#Cc1cc(CNC(=O)/C=C/c2ccc(N3CCOCC3)nc2)cc(F)c1NS(C)(=O)=O` [Examples 23], the IC50 was over 10000 nM.

Turning to `CC(C)(C)c1ccc(OCC(=O)NCc2ccc(NS(C)(=O)=O)c(F)c2)c(Br)n1` [Examples 28], the IC50 stood at 1600 nM.

For the compound `C#Cc1cc(CNC(=O)COc2ccc(C(C)(C)C)nc2)cc(F)c1NS(C)(=O)=O` [Examples 34], the 50% inhibitory concentration (IC50) was over 10000 nM.

(Values after patent US7858621B2 (Amorepacific Corporation, priority 2006, dated 2010).)
